Molecules are shown by their SMILES.

The subject of one series is Coxsackievirus B2. Kind of series: Antiviral activity against Human coxsackievirus B2 infected in African green monkey Vero 76 cells assessed as reduction in plaque number treated after viral infection measured after 3 days by plaque reduction assay. The series is classed as functional, organism-based. Particulars: Enterovirus B, 72 h. Background: Plaque reduction counts the foci of infection that form in a cell layer.

The test system of series [1] is Mammalian orthoreovirus 1. In words: Antiviral activity against Mammalian orthoreovirus 1 infected Syrian hamster BHK-21 cells assessed as protection against virus-induced cytopathogenicity treated 1 hr after viral infection measured after 3-4 days by MTT method. The series is classed as functional, organism-based. Conditions: Mammalian orthoreovirus 1, BHK-21. (Protection from cytopathic effect is a common read-out in antiviral testing.)

A short description of series [2]: Cytotoxicity against Mesocricetus auratus (Syrian golden hamster) BHK21cells assessed as inhibition of cell viability after 48 to 120 hr by MTT assay. Conditions: BHK-21 cells. The series is classed as cell-based. Background: Tetrazolium dyes change colour on reduction, which living cells bring about.
A further series concerns Vaccinia virus. In words: Antiviral activity against Vaccinia virus infected African green monkey Vero 76 cells assessed as reduction in plaque number treated after viral infection measured after 3 days by plaque reduction assay. The series is classed as functional, organism-based. Particulars: Orthopoxvirus vaccinia, 72 h.
The test system of series [3] is Human immunodeficiency virus 1. Kind of series: Antiviral activity against Human immunodeficiency virus 1 infected human MT4 cells assessed as protection against virus-induced cytopathogenicity treated before viral infection measured after 4 days by MTT assay. It counts as functional, organism-based. Conditions: Human immunodeficiency virus 1, MT4, 96 h.
The test system of the next series is Poliovirus 1. In words: Antiviral activity against Human poliovirus 1 strain Sabin infected African green monkey Vero 76 cells assessed as reduction in plaque number treated after viral infection measured after 2 days by plaque reduction assay. It counts as functional, organism-based. Conditions: Enterovirus C, 48 h.
Another series deals with Yellow fever virus. Kind of series: Antiviral activity against Yellow fever virus infected Syrian hamster BHK-21 cells assessed as protection against virus-induced cytopathogenicity treated 1 hr after viral infection measured after 3-4 days by MTT method. The series is classed as functional, organism-based.
For series [4], the system named is Vesicular stomatitis virus. In words: Antiviral activity against Vesicular stomatitis virus infected African green monkey Vero 76 cells assessed as reduction in plaque number treated after viral infection measured after 2 days by plaque reduction assay. It counts as functional, organism-based. Particulars: 48 h.
A short description of series [5]: Cytotoxicity against Chlorocebus aethiops (African green monkey) Vero 76 cells assessed as inhibition of cell viability after 48 to 120 hr by MTT assay. Conditions: chlorocebus sabaeus. The series is classed as cell-based.
Series [6] in a line: Cytotoxicity against Bos taurus (bovine) MDBK cells assessed as inhibition of cell viability after 48 to 120 hr by MTT assay. It counts as cell-based. Particulars: cattle.
Series [7] has as its system Bovine viral diarrhea virus 1. Kind of series: Antiviral activity against Bovine viral diarrhea virus 1 infected bovine MDBK cells assessed as protection against virus-induced cytopathogenicity treated 1 hr after viral infection measured after 3-4 days by MTT method. Particulars: Bovine viral diarrhea virus isolates and strains. The series is classed as functional, organism-based.

Series [8] concerns Respiratory syncytial virus. In words: Antiviral activity against Respiratory syncytial virus infected African green monkey Vero 76 cells assessed as reduction in plaque number treated after viral infection measured after 5 days by plaque reduction assay. The series is classed as functional, organism-based. Conditions: human respiratory syncytial virus, 120 h.
The subject of the next series is Human alphaherpesvirus 1. In words: Antiviral activity against Human herpesvirus 1 infected African green monkey Vero 76 cells assessed as reduction in plaque number treated after viral infection measured after 3 days by plaque reduction assay. Particulars: Human alphaherpesvirus 1, Vero, 72 h. It counts as functional, organism-based.
Series [9] is described as follows: Cytotoxicity against Homo sapiens (human) MT4 cells assessed as inhibition of cell vaibility after 96 hr by MTT assay. The series is classed as cell-based.
A short description of series [10]: Selectivity index, ratio of CC50 for bovine MDBK cells to EC50 for BVDV infected in bovine MDBK cells.

On to `COc1ccc(-c2nnc3nnc4c5ccccc5[nH]c4n23)cc1OC`, for which the 50% effective concentration (EC50) in the series on Coxsackievirus B2 is over 100 µM; in series [1], 55 µM; with Vaccinia virus, over 100 µM; in [3] it was over 100 µM; in the series on Poliovirus 1 it was over 100 µM; in the series on Yellow fever virus, over 100 µM. In addition, the EC50 (in [4]; in [7]; in series [8]; with Human alphaherpesvirus 1) was over 100 µM throughout. Moreover, the CC50 in series [2], in series [5] and in series [6] was over 100 µM each time. In addition, the CC50 at 96 h in series [9] is over 100 µM.

As for `COc1ccc(-c2nnc3nnc4c5ccccc5[nH]c4n23)cc1`, the EC50 (in the series with Coxsackievirus B2; in [1]; in the series with Vaccinia virus; in [3]; in the series on Poliovirus 1; with Yellow fever virus) was over 100 µM in each case. Moreover, the EC50 (in [4]; in series [7]; in [8]; with Human alphaherpesvirus 1) was over 100 µM each time. Also, the CC50 in series [2], in series [5] and in series [6] was over 100 µM each time. The CC50 at 96 h in series [9] is over 100 µM.

For `CSc1ccc(-c2nnc3nnc4c5ccccc5[nH]c4n23)cc1`, the EC50 with Coxsackievirus B2 is over 90 µM; in [1], 45 µM; in the series with Vaccinia virus, over 90 µM; in [3] it was over 100 µM; in the series on Poliovirus 1, over 90 µM; in the series on Yellow fever virus, over 100 µM. Moreover, the EC50 is over 90 µM in [4], over 100 µM in [7], over 90 µM in series [8] and over 90 µM with Human alphaherpesvirus 1. Besides, the results for the CC50 in series [2], in [5] and in series [6] were over 100 µM, 90 µM and over 100 µM, respectively. In addition, the CC50 at 96 h in [9] is over 100 µM.

Regarding `Brc1cccc(-c2nnc3nnc4c5ccccc5[nH]c4n23)c1`, the EC50 (with Coxsackievirus B2; in [1]; in the series on Vaccinia virus; in series [3]; in the series on Poliovirus 1; in the series on Yellow fever virus) was over 100 µM throughout. Further, the EC50 (in series [4]; in series [7]; in series [8]; with Human alphaherpesvirus 1) was over 100 µM in each case. Further, the CC50 in [2], in [5] and in [6] was over 100 µM each time. Besides, in [9], the CC50 at 96 h is over 100 µM.

Regarding `Fc1ccc(-c2nnc3nnc4c5ccccc5[nH]c4n23)cc1`, the EC50 (with Coxsackievirus B2; in series [1]; in the series with Vaccinia virus; in series [3]; in the series with Poliovirus 1; with Yellow fever virus) was over 100 µM each time. Also, the EC50 (in [4]; in series [7]; in series [8]; with Human alphaherpesvirus 1) was over 100 µM throughout. Besides, the CC50 in series [2], in [5] and in series [6] was over 100 µM in each case. Besides, the CC50 at 96 h in [9] was over 100 µM.

As to `Clc1ccccc1-c1nnc2nnc3c4ccccc4[nH]c3n12`, the EC50 (with Coxsackievirus B2; in [1]; with Vaccinia virus; in [3]; in the series with Poliovirus 1; in the series on Yellow fever virus) was over 100 µM each time. Also, the EC50 (in series [4]; in series [7]; in series [8]; in the series with Human alphaherpesvirus 1) was over 100 µM in each case. Besides, the CC50 in series [2], in series [5] and in series [6] was over 100 µM in each case. Further, the CC50 at 96 h in series [9] was over 100 µM.

`Clc1ccc(-c2nnc3nnc4c5ccccc5[nH]c4n23)cc1`: the EC50 (in the series on Coxsackievirus B2; in series [1]; in the series with Vaccinia virus; in [3]; with Poliovirus 1; in the series on Yellow fever virus) was over 100 µM throughout. In addition, the EC50 (in series [4]; in series [7]; in [8]; in the series on Human alphaherpesvirus 1) was over 100 µM in each case. The CC50 in series [2], in series [5] and in [6] was over 100 µM throughout. In addition, the CC50 at 96 h in series [9] is over 100 µM.

On to `O=[N+]([O-])c1cccc(-c2nnc3nnc4c5ccccc5[nH]c4n23)c1`, for which the EC50 (in the series with Coxsackievirus B2; in series [1]; with Vaccinia virus; in [3]; in the series on Poliovirus 1; in the series on Yellow fever virus) was over 100 µM each time. Besides, the EC50 (in [4]; in series [7]; in [8]; with Human alphaherpesvirus 1) was over 100 µM each time. For the same compound, the CC50 in series [2], in series [5] and in series [6] was over 100 µM throughout. Further, the CC50 at 96 h in series [9] was over 100 µM.

For `Clc1cccc(-c2nnc3nnc4c5ccccc5[nH]c4n23)c1`, the EC50 in the series with Coxsackievirus B2 was over 60 µM; in [1], over 55 µM; in the series with Vaccinia virus, over 60 µM; in series [3] it was over 29 µM; in the series with Poliovirus 1, over 60 µM; in the series with Yellow fever virus, over 55 µM. Besides, the EC50 in series [4] was over 60 µM; in series [7] it was 69 µM; in [8] it was over 60 µM; in the series with Human alphaherpesvirus 1, over 60 µM. The CC50 is 55 µM in [2], 60 µM in [5] and over 100 µM in series [6]. The “Ratio CC50/EC50” value in series [10] was over 1.45. In addition, the CC50 at 96 h in [9] stood at 29 µM.

As for `COc1cc(-c2nnc3nnc4c5ccccc5[nH]c4n23)ccc1O`, the EC50 with Coxsackievirus B2 was over 80 µM; in [1] it was 25 µM; in the series with Vaccinia virus it was over 80 µM; in series [3] it was over 58 µM; in the series on Poliovirus 1 it was over 80 µM; in the series on Yellow fever virus, over 45 µM. Further, the EC50 is over 80 µM in series [4], 90 µM in series [7], over 80 µM in [8] and over 80 µM in the series with Human alphaherpesvirus 1. Besides, the CC50 in series [2] was 45 µM; in [5] it was 80 µM; in series [6], over 100 µM. In addition, in series [10], the “Ratio CC50/EC50” value was over 1.11. The CC50 at 96 h in series [9] came out at 58 µM.

In the case of `c1ccc2c(-c3nnc4nnc5c6ccccc6[nH]c5n34)c3ccccc3cc2c1`, the EC50 with Coxsackievirus B2 was over 100 µM; in series [1] it was over 100 µM; in series [3] it was over 56 µM; in [7], 3 µM; in series [8], over 100 µM; with Human alphaherpesvirus 1, over 100 µM. The CC50 in [2] is over 100 µM; in [5] it was at least 100 µM; in series [6], over 100 µM. Besides, the “Ratio CC50/EC50” value in series [10] was over 33.33. Moreover, the CC50 at 96 h in [9] worked out at 56 µM.

As usually defined, the EC50 is the concentration at which the effect is half-maximal. What is called CC50 is the concentration giving 50% cytotoxicity.

These data come from ChEMBL document CHEMBL3046811, “Syntheses and in vitro biological screening of 1-aryl-10H-[1,2,4]triazolo[3,4:3,4][1,2,4]triazino[5,6-b]indoles” (Med Chem Res, 2013).
